Publication PMC11412156 (Journal of medicinal chemistry, 2024)
Each block holds one compound with its values, some of them ahead of it.

Tests used:
[1] = test system: xylene-induced ear swelling inflammation in mice; experiment: Xylene-induced ear swelling inflammation model in mice; type: in vivo, Kunming mice; conditions: Table 7 dose study, 10 mg/kg by gavage for 7 days
[2] = test system: formalin-induced inflammatory pain in mice; experiment: Formalin-induced inflammatory pain model in mice; type: in vivo, Kunming mice; conditions: dose study, Figure 15; 10 mg/kg, compared with the model group
HDAC6 = biological target: T1, HDAC6 (Homo sapiens, UniProt Q9UBN7); experiment: HDAC enzyme-based fluorogenic assay, HDAC6; type: biochemical; conditions: final concentration of 2 μM, preliminary screen
T1 sequence (Q9UBN7 1-1215): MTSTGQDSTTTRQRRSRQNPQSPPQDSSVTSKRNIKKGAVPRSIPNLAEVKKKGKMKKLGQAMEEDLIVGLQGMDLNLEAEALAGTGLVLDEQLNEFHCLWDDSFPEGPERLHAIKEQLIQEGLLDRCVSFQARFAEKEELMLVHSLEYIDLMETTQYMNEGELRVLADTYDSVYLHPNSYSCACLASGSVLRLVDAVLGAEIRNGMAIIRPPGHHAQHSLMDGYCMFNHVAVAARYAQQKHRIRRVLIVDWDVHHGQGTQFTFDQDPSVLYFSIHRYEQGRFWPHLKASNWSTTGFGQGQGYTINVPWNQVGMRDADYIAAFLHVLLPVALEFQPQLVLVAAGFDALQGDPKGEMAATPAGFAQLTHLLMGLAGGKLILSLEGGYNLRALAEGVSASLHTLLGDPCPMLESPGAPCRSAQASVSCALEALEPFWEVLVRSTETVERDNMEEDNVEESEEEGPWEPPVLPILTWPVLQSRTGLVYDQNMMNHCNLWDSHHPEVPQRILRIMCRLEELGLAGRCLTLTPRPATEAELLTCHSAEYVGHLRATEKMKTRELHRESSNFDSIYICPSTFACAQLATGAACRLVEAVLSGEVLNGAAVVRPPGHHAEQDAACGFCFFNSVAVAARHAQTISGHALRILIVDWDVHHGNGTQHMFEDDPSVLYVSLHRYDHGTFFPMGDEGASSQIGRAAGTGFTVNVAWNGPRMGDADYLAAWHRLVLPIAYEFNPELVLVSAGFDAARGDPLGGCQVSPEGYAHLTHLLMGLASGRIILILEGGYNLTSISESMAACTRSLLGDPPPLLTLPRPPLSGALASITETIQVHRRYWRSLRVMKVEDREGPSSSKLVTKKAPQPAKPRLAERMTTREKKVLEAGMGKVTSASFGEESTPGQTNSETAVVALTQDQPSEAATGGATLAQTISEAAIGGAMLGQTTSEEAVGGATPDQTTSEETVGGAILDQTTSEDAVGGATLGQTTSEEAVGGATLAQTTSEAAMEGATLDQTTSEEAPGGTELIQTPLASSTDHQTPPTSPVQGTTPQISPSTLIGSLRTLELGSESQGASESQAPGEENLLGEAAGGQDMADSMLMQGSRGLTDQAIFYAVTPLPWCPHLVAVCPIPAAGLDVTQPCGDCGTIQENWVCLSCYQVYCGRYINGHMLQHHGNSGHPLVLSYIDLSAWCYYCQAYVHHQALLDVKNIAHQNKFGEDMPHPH

[3] = In vitro metabolic stability in rat liver microsomes; type: in vitro ADME; conditions: for metabolic stability in RLM, column 0: incubation 0 min; for metabolic stability in RLM, column 0 / metabolic stability in RLM, column 10 / metabolic stability in RLM, column 30 / metabolic stability in RLM, column 45 / metabolic stability in RLM, column 60: 37 °C, NADPH; for metabolic stability in RLM, column 10: incubation 10 min; for metabolic stability in RLM, column 30: incubation 30 min; for metabolic stability in RLM, column 45: incubation 45 min; for metabolic stability in RLM, column 60: incubation 60 min; for t1/2 in RLM: rat liver microsomes
HsEH = biological target: T2, HsEH (Homo sapiens, UniProt P34913); experiment: fluorescent-based sEH assay with PHOME as substrate; type: biochemical
T2 sequence (P34913 1-555): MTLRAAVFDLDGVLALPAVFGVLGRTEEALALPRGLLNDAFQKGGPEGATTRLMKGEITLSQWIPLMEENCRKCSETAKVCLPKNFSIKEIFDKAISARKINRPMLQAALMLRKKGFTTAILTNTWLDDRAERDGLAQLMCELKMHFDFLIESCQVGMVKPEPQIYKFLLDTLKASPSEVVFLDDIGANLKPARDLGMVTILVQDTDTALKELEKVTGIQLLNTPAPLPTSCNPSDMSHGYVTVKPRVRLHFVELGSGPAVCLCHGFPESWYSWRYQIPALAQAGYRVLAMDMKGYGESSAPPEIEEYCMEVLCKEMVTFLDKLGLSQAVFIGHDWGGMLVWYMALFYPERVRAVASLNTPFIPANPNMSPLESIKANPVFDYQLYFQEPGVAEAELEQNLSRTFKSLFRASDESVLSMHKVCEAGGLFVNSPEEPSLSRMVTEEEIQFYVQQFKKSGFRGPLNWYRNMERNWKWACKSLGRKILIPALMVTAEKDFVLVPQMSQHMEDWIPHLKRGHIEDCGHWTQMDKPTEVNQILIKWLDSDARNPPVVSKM

MsEH = biological target: T3, MsEH (Mus musculus, UniProt P34914); experiment: as above; type: biochemical
T3 sequence (P34914 1-554): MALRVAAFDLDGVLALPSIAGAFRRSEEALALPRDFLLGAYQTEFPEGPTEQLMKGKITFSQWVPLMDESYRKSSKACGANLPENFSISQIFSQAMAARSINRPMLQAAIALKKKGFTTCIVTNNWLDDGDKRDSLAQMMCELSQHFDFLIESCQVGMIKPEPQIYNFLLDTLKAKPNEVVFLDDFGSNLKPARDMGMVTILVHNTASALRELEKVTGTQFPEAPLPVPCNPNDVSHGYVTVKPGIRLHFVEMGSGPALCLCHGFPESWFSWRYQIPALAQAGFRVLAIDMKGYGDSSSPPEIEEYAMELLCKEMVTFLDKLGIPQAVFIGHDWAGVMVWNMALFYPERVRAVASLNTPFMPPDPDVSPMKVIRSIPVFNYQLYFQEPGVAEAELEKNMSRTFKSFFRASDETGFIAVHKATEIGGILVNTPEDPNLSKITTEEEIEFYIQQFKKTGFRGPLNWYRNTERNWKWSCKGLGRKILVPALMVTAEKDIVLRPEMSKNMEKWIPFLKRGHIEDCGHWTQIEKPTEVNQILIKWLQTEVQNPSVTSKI

SMILES: Cc1ccc(-c2cc(C(F)(F)F)nn2-c2ccc(S(N)(=O)=O)cc2)cc1 [Celecoxib, reference compound]
Inhibition rate [1]: 32.83% | Swelling degree [1]: 10.5 ± 1.5 mg | Swelling rate [1]: 74.21% | pain response, second phasic response [2]: reduced the pain response

SMILES: C[C@]12C[C@@H]3C[C@](C)(C1)C[C@@](NC(=O)Nc1ccc(C(=O)N4CCC[C@H](C(=O)NCCCCCCC(=O)NO)C4)cc1F)(C3)C2 [Compound 7d, (S)-1-(4-(3-((1r,3R,5S,7S)-3,5-Dimethyladamantan-1-yl)ureido)-3-fluorobenzoyl)-N-(7-(hydroxyamino)-7-oxoheptyl)piperidine-3-carboxamide]
HDAC6 inhibitor rate (HDAC6): 63%

SMILES: C[C@]12C[C@@H]3C[C@](C)(C1)C[C@@](NC(=O)Nc1ccc(CN4CCC[C@H](C(=O)NCCCCCCC(=O)NO)C4)cc1F)(C3)C2 [Compound 16d, (S)-1-(4-(3-((1r,3R,5S,7S)-3,5-Dimethyladamantan-1-yl)ureido)-3-fluorobenzyl)-N-(7-(hydroxyamino)-7-oxoheptyl)piperidine-3-carboxamide]
HDAC6 inhibitor rate (HDAC6): 63% | metabolic stability in RLM, column 0 [3]: 100.00 | metabolic stability in RLM, column 10 [3]: 89.16 | metabolic stability in RLM, column 30 [3]: 79.33 | metabolic stability in RLM, column 45 [3]: 52.13 | metabolic stability in RLM, column 60 [3]: 46.62 | t1/2 in RLM [3]: 0.8165 h

SMILES: O=C(CCCCCCNC(=O)[C@H]1CCCN(C(=O)c2ccc(NC(=O)Nc3ccc(OC(F)(F)F)c(F)c3)c(F)c2)C1)NO [Compound 28a, (S)-1-(3-Fluoro-4-(3-(3-fluoro-4-(trifluoromethoxy)phenyl)ureido)benzoyl)-N-(7-(hyd-roxyamino)-7-oxoheptyl)piperidine-3-carboxamide]
HDAC6 inhibitor rate (HDAC6): > 91%

IC50 (HsEH): 0.7 nM | IC50 (MsEH): 5.4 nM
SMILES: O=C(CCCCCCNC(=O)[C@H]1CCCN(C(=O)c2ccc(NC(=O)Nc3ccc(F)c(Cl)c3)c(F)c2)C1)NO [Compound 28e, (S)-1-(4-(3-(3-Chloro-4-fluorophenyl)ureido)-3-fluorobenzoyl)-N-(7-(hydroxyamino)-7-oxoheptyl)piperidine-3-carboxamide]

IC50 (HsEH): 0.7 nM | IC50 (MsEH): 7.4 nM | HDAC6 inhibitor rate (HDAC6): > 91%
SMILES: Cc1ccc(NC(=O)Nc2ccc(C(=O)N3CCC[C@H](C(=O)NCCCCCCC(=O)NO)C3)cc2F)cc1F [Compound 28h, (S)-1-(3-Fluoro-4-(3-(3-fluoro-4-methylphenyl)ureido)benzoyl)-N-(7-(hydroxyamino)-7-oxoheptyl)piperidine-3-carboxamide]

IC50 (HsEH): 1.2 nM | IC50 (MsEH): 7.7 nM
SMILES: Cc1cc(NC(=O)Nc2ccc(C(=O)N3CCC[C@H](C(=O)NCCCCCCC(=O)NO)C3)cc2F)ccc1F [Compound 28i, (S)-1-(3-Fluoro-4-(3-(4-fluoro-3-methylphenyl)ureido)benzoyl)-N-(7-(hydroxyamino)-7-oxoheptyl)piperidine-3-carboxamide]

SMILES: O=C(CCCCCCNC(=O)[C@H]1CCCN(C(=O)c2ccc(NC(=O)NC(c3ccccc3)c3ccccc3)c(F)c2)C1)NO [Compound 28k, (S)-1-(4-(3-Benzhydrylureido)-3-fluorobenzoyl)-N-(7-(hydroxyamino)-7-oxoheptyl) piperidine-3-carboxamide]
HDAC6 inhibitor rate (HDAC6): 63.58%

SMILES: CC12CC3CC(C)(C1)CC(Nc1c(Nc4ccc(CN5CCC[C@H](C(=O)NCCCCCCC(=O)NO)C5)cc4F)c(=O)c1=O)(C3)C2 [Compound 34d, (S)-1-(4-((2-(((1r,3R,5S,7r)-3,5-Dimethyladamantan-1-yl)amino)-3,4-dioxocyclobut-1-en-1-yl)amino)-3-fluorobenzyl)-N-(7-(hydroxyamino)-7-oxoheptyl)piperidine-3-carb-oxamide]
metabolic stability in RLM, column 0 [3]: 100.00 | metabolic stability in RLM, column 10 [3]: 82.82 | metabolic stability in RLM, column 30 [3]: 73.29 | metabolic stability in RLM, column 45 [3]: 66.27 | metabolic stability in RLM, column 60 [3]: 50.51 | t1/2 in RLM [3]: 1.223 h
